Assay results: patent US4499083A, “3-O-Demethyl derivatives of the istamycin B series of compounds” (Zaidan Hojin Biseibutsu Kagaku Kenkyu Kai, priority 1980, dated 1985)
Values after ≈ are worked out from the molar mass of the structure shown. Like-named read-outs stand apart in the source and are kept apart here.

Key:
Escherichia coli W677 = experiment: Antibacterial spectrum, MIC by serial dilution on nutrient agar; type: cell-based; details: read-out: Minimum inhibitory concentration
Bacillus anthracis = experiment: microbe, parasite or virus in culture; type: cell-based; details: 17 h, read-out: Minimum inhibitory concentration
Escherichia coli K-12 = experiment: Antibacterial spectrum, MIC by serial dilution on nutrient agar; type: cell-based; details: K12, 37° C., 17 hours, read-out: Minimum inhibitory concentration
in vivo = details: mouse, iv
Sarcina lutea PCI 1001 = experiment: Antibacterial spectrum, MIC by serial dilution on nutrient agar; type: cell-based; details: Micrococcus luteus, PCI1001, 37° C., 17 hours, read-out: Minimum inhibitory concentration
[1] = tested on: Pseudomonas aeruginosa GN315; experiment: as above; type: cell-based; details: 37° C., 17 hours, read-out: Minimum inhibitory concentration
[2] = tested on: Pseudomonas aeruginosa 99; experiment: as above; type: cell-based; details: 37° C., 17 hours, read-out: Minimum inhibitory concentration
Providencia sp. 2991 = experiment: as above; type: cell-based; details: 37° C., 17 hours, read-out: Minimum inhibitory concentration
[3] = tested on: Salmonella enteritidis 1891; experiment: as above; type: cell-based; details: Salmonella enterica, 37° C., 17 hours, read-out: Minimum inhibitory concentration
[4] = tested on: Corynebacterium bovis 1810; experiment: as above; type: cell-based; details: read-out: Minimum inhibitory concentration
Escherichia coli JR255 = experiment: as above; type: cell-based; details: read-out: Minimum inhibitory concentration
[5] = tested on: Escherichia coli JR66/W677; experiment: as above; type: cell-based; details: JR66/W677, 17 h, read-out: Minimum inhibitory concentration
[6] = tested on: Mycobacterium smegmatis ATCC 607; experiment: as above; type: cell-based; details: Mycolicibacterium smegmatis, read-out: Minimum inhibitory concentration
[7] = tested on: Pseudomonas maltophilia GN 907; experiment: as above; type: cell-based; details: Stenotrophomonas maltophilia, GN907, 37° C., 17 hours, read-out: Minimum inhibitory concentration
[8] = tested on: Gram-negative and Gram-positive bacteria; experiment: Antibacterial activity, overall statement; type: cell-based
Procedure: The antibacterial spectra of 3-O-demethylistamycin B.sesquicarbonate and 3-O-demethyl-2"-N-formimidoylistamycin B.disulphate.trihydrate are shown in Table 2, along with that of istamycin B for comparison purposes.
*^1 Determined according to a standard serial dilution method on
nutrient agar plates which were incubated at 37° C. for 17 hours.

Proteus vulgaris OX19 = experiment: Antibacterial spectrum, MIC by serial dilution on nutrient agar; type: cell-based; details: 37° C., 17 hours, read-out: Minimum inhibitory concentration
[9] = tested on: Pseudomonas aeruginosa K-Ps 102; experiment: as above; type: cell-based; details: read-out: Minimum inhibitory concentration
[10] = tested on: Staphylococcus aureus Smith; experiment: as above; type: cell-based; details: read-out: Minimum inhibitory concentration
[11] = tested on: Bacillus subtilis NRRL B-558; experiment: as above; type: cell-based; details: read-out: Minimum inhibitory concentration
[12] = tested on: Staphylococcus epidermidis 109; experiment: as above; type: cell-based; details: 37° C., 17 hours, read-out: Minimum inhibitory concentration
mice = experiment: Acute toxicity by intravenous injection in mice
Salmonella typhi T-63 = experiment: Antibacterial spectrum, MIC by serial dilution on nutrient agar; type: cell-based; details: Salmonella enterica, 17 h, read-out: Minimum inhibitory concentration
[13] = tested on: Pseudomonas aeruginosa TI-13; experiment: as above; type: cell-based; details: TI13, 37° C., 17 hours, read-out: Minimum inhibitory concentration
resistant bacteria = experiment: Antibacterial activity against resistant bacteria; type: cell-based
Pseudomonas aeruginosa = experiment: Antibacterial activity against Pseudomonas aeruginosa; type: cell-based
[14] = tested on: Gram-negative and Gram-positive bacteria; details: relative to istamycin A; earlier work; cited from earlier work
[15] = listed as 3-O-demethylistamycin B
[16] = Escherichia coli W677, nutrient agar, 37° C., 17 hours
[17] = Corynebacterium bovis 1810, nutrient agar, 37° C., 17 hours
[18] = Escherichia coli JR255, nutrient agar, 37° C., 17 hours
[19] = ATCC607, Mycobacterium smegmatis ATCC 607, nutrient agar, 37° C., 17 hours
[20] = KPS102, Pseudomonas aeruginosa K-Ps 102, nutrient agar, 37° C., 17 hours
[21] = Staphylococcus aureus Smith, nutrient agar, 37° C., 17 hours
[22] = NRRLB558, Bacillus subtilis NRRL B-558, nutrient agar, 37° C., 17 hours

| Structure (SMILES) | MIC (Bacillus anthracis) [µg/mL] | MIC (Escherichia coli K-12) [µg/mL] | MTD (in vivo) [mg/kg] | MIC (Sarcina lutea PCI 1001) [µg/mL] | MIC [1] [µg/mL] | MIC [2] [µg/mL] | MIC (Providencia sp. 2991) [µg/mL] | MIC [3] [µg/mL] | MIC [5] [µg/mL] | MIC [7] [µg/mL] | antibacterial activity (in words) [8] | MIC (Proteus vulgaris OX19) [µg/mL] | MIC [12] [µg/mL] | toxicity (in words) (mice) | MIC (Salmonella typhi T-63) [µg/mL] | MIC [13] [µg/mL] | MIC (Escherichia coli W677; [16]) [µg/mL] | MIC [4, 17] [µg/mL] | MIC (Escherichia coli JR255; [18]) [µg/mL] | MIC [6, 19] [µg/mL] | further results |
| --- | --- | --- | --- | --- | --- | --- | --- | --- | --- | --- | --- | --- | --- | --- | --- | --- | --- | --- | --- | --- | --- |
| CNCC1CCC(N)C(OC2C(N)CC(O)C(N(C)C(=O)CN)C2O)O1 (centres unmarked) [3-O-Demethylistamycin B] | < 0.2 | 3.13 (≈ 8.34 µM) | 160 | 0.39 (≈ 1.04 µM) | 12.5 (≈ 33.3 µM) | 25 (≈ 66.6 µM) | 12.5 (≈ 33.3 µM) | 3.13 (≈ 8.34 µM) | 6.25 (≈ 16.6 µM) | > 100 | high antibacterial activity | 0.78 (≈ 2.08 µM) | 0.78 (≈ 2.08 µM) | low toxicity to animals | 1.56 (≈ 4.15 µM) | 12.5 (≈ 33.3 µM) |  |  |  |  | MIC (Escherichia coli W677; Escherichia coli, W677, 17 h): 1.56 µg/mL (≈ 4.15 µM); MIC ([4]; Corynebacterium bovis, 1810, 17 h): 1.56 µg/mL (≈ 4.15 µM); MIC (Escherichia coli JR255; Escherichia coli, JR255, 17 h): 1.56 µg/mL (≈ 4.15 µM); MIC ([6]; ATCC607, 17 h): < 0.2 µg/mL; antibacterial activity (in words) [8, 15]: high antibacterial activity against a wide variety of Gram-negative and Gram-positive bacteria; MIC ([9]; Pseudomonas aeruginosa, KPS102, 17 h): 6.25 µg/mL (≈ 16.6 µM); MIC ([10]; Staphylococcus aureus, 17 h): < 0.2 µg/mL; MIC ([11]; Bacillus subtilis, NRRLB558, 17 h): < 0.2 µg/mL; toxicity (in words) (mice; [15]): low toxicity; effectiveness against a variety of resistant bacteria (in words) (resistant bacteria): effective against not only Pseudomonas aeruginosa but also a variety of resistant bacteria; effectiveness against Pseudomonas aeruginosa (in words) (Pseudomonas aeruginosa): effective against not only Pseudomonas aeruginosa |
| CNCC1CCC(N)C(OC2C(N)CC(OC)C(N(C)C(=O)CN)C2O)O1 (centres unmarked) [Istamycin B, istamycin B] | < 0.2 | 1.56 (≈ 4.01 µM) |  | 0.2 (≈ 0.513 µM) | 50 (≈ 128 µM) | > 100 | 6.25 (≈ 16 µM) | 1.56 (≈ 4.01 µM) | 3.13 (≈ 8.04 µM) | > 100 |  | 0.39 (≈ 1 µM) | 0.78 (≈ 2 µM) |  | 0.39 (≈ 1 µM) | 25 (≈ 64.2 µM) | 1.56 (≈ 4.01 µM) | 0.78 (≈ 2 µM) | 0.78 (≈ 2 µM) | 0.78 (≈ 2 µM) | antibacterial activity compared with istamycin A [14]: higher antibacterial activity than istamycin A; MIC [9, 20]: 50 µg/mL (≈ 128 µM); MIC [10, 21]: < 0.2 µg/mL; MIC [11, 22]: < 0.2 µg/mL |
| CNCC1CCC(N)C(OC2C(N)CC(O)C(N(C)C(=O)CNC=N)C2O)O1 (centres unmarked) [3-O-Demethyl-2"-N-formimidoylistamycin B] | < 0.2 | 1.56 (≈ 3.88 µM) | 160 | < 0.2 | 6.25 (≈ 15.5 µM) | 100 (≈ 248 µM) | 12.5 (≈ 31.1 µM) | 1.56 (≈ 3.88 µM) | 3.13 (≈ 7.78 µM) | > 100 | high antibacterial activity against a wide variety of Gram-negative and Gram-positive bacteria | 0.39 (≈ 0.969 µM) | 0.78 (≈ 1.94 µM) | low toxicity to animals | 0.78 (≈ 1.94 µM) | 6.25 (≈ 15.5 µM) | 0.78 (≈ 1.94 µM) | 0.78 (≈ 1.94 µM) | 0.78 (≈ 1.94 µM) | < 0.2 | MIC [9, 20]: 12.5 µg/mL (≈ 31.1 µM); MIC [10, 21]: < 0.2 µg/mL; MIC [11, 22]: < 0.2 µg/mL |
